Assay results as given in the kinase profiling compilation of Christmann-Franck et al. (2016).

Columns and labels:
Test in all cases: KINOMEscan competition binding
Details in all cases: compound 10.0 µM
MAP3K11 (human) = MAP3K11 (human) (UniProt Q16584)
PIM1 (human) = PIM1 (human) (UniProt P11309)
TNK2 (human) = TNK2 (human) (UniProt Q07912)
FYN (human) = FYN (human) (UniProt P06241)
DAPK2 (human) = DAPK2 (human) (UniProt Q9UIK4)
PIK3CA (human) = PIK3CA (human) (UniProt P42336)
CDK14 (human) = CDK14 (human) (UniProt O94921)
[1] = biological target: JAK1 JH1 catalytic (human) (UniProt P23458)
[2] = test system: ABL1 (human), P00519 [H396P]
PAK2 (human) = PAK2 (human) (UniProt Q13177)
ALK (human) = ALK (human) (UniProt Q9UM73)
MUSK (human) = MUSK (human) (UniProt O15146)
EPHA5 (human) = EPHA5 (human) (UniProt P54756)
RPS6KA6 KD1 (human) = RPS6KA6 KD1 (human) (UniProt Q9UK32)
CDK3 (human) = CDK3 (human) (UniProt Q00526)
STK35 (human) = STK35 (human) (UniProt Q8TDR2)
ACVR1B (human) = ACVR1B (human) (UniProt P36896)
EPHB3 (human) = EPHB3 (human) (UniProt P54753)
ITK (human) = ITK (human) (UniProt Q08881)
RPS6KA2 KD1 (human) = RPS6KA2 KD1 (human) (UniProt Q15349)
STK16 (human) = STK16 (human) (UniProt O75716)
SRPK2 (human) = SRPK2 (human) (UniProt P78362)
ABL1 (human) = ABL1 (human) (UniProt P00519)
MAP2K6 (human) = MAP2K6 (human) (UniProt P52564)
BRAF (human) = BRAF (human) (UniProt P15056)
HIPK1 (human) = HIPK1 (human) (UniProt Q86Z02)
NEK1 (human) = NEK1 (human) (UniProt Q96PY6)
LIMK2 (human) = LIMK2 (human) (UniProt P53671)
RPS6KA1 KD2 (human) = RPS6KA1 KD2 (human) (UniProt Q15418)
MAP3K2 (human) = MAP3K2 (human) (UniProt Q9Y2U5)
HIPK3 (human) = HIPK3 (human) (UniProt Q9H422)
DYRK1A (human) = DYRK1A (human) (UniProt Q13627)
HIPK2 (human) = HIPK2 (human) (UniProt Q9H2X6)

Chain of RPS6KA1 KD2 (human) (Q15418 whole entry, looked up): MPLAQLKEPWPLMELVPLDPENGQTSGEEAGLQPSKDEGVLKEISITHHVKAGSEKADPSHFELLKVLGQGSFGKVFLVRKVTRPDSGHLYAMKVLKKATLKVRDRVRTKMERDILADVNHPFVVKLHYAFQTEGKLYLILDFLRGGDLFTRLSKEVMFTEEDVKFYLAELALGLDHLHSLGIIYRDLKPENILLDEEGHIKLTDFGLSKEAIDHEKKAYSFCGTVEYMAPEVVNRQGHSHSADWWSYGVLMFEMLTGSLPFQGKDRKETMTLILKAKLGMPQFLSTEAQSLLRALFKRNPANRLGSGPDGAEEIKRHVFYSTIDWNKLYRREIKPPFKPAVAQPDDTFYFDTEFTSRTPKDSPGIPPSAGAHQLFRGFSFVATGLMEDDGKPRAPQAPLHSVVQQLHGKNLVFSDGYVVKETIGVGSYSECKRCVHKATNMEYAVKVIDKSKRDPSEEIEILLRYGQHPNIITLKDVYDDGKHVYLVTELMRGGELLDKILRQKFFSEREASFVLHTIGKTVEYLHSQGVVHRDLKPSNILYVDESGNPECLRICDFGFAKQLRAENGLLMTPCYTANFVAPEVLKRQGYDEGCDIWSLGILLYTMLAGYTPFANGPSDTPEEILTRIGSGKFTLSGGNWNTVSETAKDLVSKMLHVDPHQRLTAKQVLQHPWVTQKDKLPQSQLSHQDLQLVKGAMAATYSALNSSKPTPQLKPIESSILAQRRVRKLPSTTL
Chain of LIMK2 (human) (P53671 whole entry, looked up): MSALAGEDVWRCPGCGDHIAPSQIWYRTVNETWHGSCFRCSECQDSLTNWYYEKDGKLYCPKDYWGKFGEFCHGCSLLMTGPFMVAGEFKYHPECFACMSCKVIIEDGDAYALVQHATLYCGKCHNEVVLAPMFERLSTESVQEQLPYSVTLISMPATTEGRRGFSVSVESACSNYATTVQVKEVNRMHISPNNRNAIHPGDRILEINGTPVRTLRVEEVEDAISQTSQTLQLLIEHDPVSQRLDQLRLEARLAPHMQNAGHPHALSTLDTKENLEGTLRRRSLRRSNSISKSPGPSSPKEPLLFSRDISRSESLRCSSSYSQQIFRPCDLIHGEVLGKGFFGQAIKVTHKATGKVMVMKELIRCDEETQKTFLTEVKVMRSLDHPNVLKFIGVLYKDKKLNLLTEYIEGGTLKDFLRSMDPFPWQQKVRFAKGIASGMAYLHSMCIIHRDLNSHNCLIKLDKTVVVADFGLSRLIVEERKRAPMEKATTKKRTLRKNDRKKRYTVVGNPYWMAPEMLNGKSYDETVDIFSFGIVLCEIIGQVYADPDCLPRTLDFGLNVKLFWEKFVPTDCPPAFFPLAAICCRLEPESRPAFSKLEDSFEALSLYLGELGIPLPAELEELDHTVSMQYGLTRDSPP
Chain of SRPK2 (human) (P78362 whole entry, looked up): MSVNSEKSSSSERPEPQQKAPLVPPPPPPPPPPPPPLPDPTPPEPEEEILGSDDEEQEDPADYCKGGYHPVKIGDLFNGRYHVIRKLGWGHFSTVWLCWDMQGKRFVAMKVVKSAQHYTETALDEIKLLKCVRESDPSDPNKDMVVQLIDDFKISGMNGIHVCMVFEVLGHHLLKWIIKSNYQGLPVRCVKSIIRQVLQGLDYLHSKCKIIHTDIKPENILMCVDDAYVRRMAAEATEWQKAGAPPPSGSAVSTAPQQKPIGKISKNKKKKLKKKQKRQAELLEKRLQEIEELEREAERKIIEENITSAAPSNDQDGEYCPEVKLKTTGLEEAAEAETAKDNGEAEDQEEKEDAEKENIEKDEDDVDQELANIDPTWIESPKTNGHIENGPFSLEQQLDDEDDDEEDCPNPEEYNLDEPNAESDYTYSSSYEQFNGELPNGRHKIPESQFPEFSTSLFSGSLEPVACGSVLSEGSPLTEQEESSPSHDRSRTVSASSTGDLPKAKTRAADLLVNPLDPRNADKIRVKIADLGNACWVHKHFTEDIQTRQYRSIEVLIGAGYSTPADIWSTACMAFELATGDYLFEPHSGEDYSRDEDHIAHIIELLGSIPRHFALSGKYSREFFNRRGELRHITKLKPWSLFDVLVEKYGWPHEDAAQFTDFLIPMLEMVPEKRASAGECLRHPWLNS
Chain of JAK1 JH1 catalytic (human) (P23458 whole entry, looked up): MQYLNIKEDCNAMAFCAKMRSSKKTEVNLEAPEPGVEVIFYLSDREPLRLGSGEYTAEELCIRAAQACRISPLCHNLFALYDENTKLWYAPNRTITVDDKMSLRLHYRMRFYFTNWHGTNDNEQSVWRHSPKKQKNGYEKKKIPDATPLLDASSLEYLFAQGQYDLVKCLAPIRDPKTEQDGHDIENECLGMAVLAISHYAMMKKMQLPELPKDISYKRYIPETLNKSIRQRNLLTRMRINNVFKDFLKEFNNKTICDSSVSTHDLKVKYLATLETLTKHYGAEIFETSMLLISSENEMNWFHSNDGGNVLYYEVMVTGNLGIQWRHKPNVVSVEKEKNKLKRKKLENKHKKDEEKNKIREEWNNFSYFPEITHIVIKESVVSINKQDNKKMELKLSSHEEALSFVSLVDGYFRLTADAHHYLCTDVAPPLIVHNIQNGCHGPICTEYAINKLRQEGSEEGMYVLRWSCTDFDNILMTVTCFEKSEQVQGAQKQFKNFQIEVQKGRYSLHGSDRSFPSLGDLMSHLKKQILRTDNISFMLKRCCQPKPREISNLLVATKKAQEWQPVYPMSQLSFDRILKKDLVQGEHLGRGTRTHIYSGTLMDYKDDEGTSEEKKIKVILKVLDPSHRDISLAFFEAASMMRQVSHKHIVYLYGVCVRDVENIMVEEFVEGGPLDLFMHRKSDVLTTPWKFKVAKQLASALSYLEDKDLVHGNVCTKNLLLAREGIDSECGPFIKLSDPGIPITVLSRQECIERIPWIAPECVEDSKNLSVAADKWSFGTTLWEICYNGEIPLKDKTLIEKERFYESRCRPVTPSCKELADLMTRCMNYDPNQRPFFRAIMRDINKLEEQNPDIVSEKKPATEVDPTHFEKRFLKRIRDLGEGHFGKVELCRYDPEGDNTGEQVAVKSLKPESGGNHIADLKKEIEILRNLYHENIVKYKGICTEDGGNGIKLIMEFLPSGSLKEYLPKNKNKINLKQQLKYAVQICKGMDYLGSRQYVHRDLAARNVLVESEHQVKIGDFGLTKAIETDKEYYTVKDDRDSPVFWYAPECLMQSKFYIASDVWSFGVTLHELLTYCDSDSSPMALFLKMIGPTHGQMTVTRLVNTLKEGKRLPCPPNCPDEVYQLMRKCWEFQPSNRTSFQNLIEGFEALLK
Chain of ITK (human) (Q08881 whole entry, looked up): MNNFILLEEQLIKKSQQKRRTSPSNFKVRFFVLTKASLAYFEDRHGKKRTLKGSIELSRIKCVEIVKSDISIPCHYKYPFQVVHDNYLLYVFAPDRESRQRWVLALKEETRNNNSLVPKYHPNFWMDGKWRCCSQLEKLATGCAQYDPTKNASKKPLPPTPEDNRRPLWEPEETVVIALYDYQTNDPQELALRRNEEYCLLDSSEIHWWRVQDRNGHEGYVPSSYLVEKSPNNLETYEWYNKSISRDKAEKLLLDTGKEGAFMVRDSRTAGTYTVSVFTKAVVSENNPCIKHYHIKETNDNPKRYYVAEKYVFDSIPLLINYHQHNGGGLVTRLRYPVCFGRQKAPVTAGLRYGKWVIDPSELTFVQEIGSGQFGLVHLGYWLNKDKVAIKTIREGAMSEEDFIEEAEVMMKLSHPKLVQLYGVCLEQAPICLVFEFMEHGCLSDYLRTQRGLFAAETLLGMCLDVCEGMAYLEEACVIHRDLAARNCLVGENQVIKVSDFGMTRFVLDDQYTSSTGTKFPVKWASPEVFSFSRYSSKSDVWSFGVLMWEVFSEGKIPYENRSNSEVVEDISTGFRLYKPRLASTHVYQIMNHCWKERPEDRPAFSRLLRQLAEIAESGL
Chain of ACVR1B (human) (P36896 whole entry, looked up): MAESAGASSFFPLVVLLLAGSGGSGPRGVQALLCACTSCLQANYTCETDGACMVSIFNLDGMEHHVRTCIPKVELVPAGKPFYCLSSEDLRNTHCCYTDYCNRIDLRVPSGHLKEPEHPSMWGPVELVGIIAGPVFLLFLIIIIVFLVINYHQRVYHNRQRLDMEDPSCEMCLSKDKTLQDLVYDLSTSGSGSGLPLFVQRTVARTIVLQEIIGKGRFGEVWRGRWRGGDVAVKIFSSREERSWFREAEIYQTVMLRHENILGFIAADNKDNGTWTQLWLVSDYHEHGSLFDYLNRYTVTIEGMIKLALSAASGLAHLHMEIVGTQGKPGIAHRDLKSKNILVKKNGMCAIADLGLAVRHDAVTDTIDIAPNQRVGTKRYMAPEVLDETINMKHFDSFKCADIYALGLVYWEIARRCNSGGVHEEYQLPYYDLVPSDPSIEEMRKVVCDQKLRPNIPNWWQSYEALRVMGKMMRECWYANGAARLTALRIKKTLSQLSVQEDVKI
Chain of RPS6KA2 KD1 (human) (Q15349 whole entry, looked up): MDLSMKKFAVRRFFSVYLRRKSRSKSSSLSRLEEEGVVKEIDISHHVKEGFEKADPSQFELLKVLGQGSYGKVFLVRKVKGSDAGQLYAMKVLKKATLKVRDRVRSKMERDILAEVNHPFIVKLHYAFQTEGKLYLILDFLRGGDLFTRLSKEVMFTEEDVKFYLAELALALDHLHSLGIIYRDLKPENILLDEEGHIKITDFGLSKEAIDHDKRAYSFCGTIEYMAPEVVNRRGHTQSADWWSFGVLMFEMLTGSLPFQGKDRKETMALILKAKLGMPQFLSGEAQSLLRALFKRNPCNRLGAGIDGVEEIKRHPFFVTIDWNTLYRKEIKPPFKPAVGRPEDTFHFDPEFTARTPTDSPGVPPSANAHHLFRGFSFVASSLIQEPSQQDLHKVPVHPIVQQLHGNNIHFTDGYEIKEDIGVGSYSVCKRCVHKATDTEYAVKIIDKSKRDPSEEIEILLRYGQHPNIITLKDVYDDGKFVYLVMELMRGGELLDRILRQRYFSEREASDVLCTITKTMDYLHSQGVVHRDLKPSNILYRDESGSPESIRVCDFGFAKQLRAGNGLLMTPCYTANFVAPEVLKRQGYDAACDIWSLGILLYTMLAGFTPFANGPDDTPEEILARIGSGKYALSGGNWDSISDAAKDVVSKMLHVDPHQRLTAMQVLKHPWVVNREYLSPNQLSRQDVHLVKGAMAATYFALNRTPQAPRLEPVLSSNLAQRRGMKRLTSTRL

kinase still bound, per cent of control (PIM1 (human)) [%] | kinase still bound, per cent of control (TNK2 (human)) [%] | kinase still bound, per cent of control (FYN (human)) [%] | kinase still bound, per cent of control (DAPK2 (human)) [%] | kinase still bound, per cent of control (PIK3CA (human)) [%] | kinase still bound, per cent of control (CDK14 (human)) [%] | kinase still bound, per cent of control [2] [%] | kinase still bound, per cent of control (PAK2 (human)) [%] | kinase still bound, per cent of control (ALK (human)) [%] | kinase still bound, per cent of control (MUSK (human)) [%] | kinase still bound, per cent of control (EPHA5 (human)) [%] | kinase still bound, per cent of control (RPS6KA6 KD1 (human)) [%] | kinase still bound, per cent of control (CDK3 (human)) [%] | kinase still bound, per cent of control (ACVR1B (human)) [%] | kinase still bound, per cent of control (EPHB3 (human)) [%] | kinase still bound, per cent of control (ITK (human)) [%] | kinase still bound, per cent of control (RPS6KA2 KD1 (human)) [%] | kinase still bound, per cent of control (STK16 (human)) [%] | kinase still bound, per cent of control (SRPK2 (human)) [%] | kinase still bound, per cent of control (ABL1 (human)) [%] | SMILES | further results
100 | 100 | 100 | 100 | 0.15 | 100 | 100 | 100 | 100 | 100 | 100 | 100 | 100 | 100 | 100 | 100 | 100 | 100 | 100 | 100 | CS(=O)(=O)N1CCN(Cc2cc3nc(-c4cccc5[nH]ncc45)nc(N4CCOCC4)c3s2)CC1 | kinase still bound, per cent of control (MAP3K2 (human)): 100%; kinase still bound, per cent of control [1]: 100%; kinase still bound, per cent of control (HIPK3 (human)): 100%; kinase still bound, per cent of control (STK35 (human)): 100%; kinase still bound, per cent of control (DYRK1A (human)): 100%; kinase still bound, per cent of control (HIPK2 (human)): 100%; kinase still bound, per cent of control (MAP2K6 (human)): 100%; kinase still bound, per cent of control (BRAF (human)): 100%; kinase still bound, per cent of control (HIPK1 (human)): 100%; kinase still bound, per cent of control (NEK1 (human)): 100%; kinase still bound, per cent of control (LIMK2 (human)): 100%; kinase still bound, per cent of control (RPS6KA1 KD2 (human)): 100%
100 | 100 | 100 | 100 | 100 | 100 | 100 | 100 | 100 | 100 | 100 | 100 | 100 | 100 | 100 | 100 | 100 | 100 | 100 | 100 | CCN(CC)CCCCNc1ncc2c(n1)N(C)C(=O)N(c1c(Cl)c(OC)cc(OC)c1Cl)C2 | kinase still bound, per cent of control (MAP3K2 (human)): 6.8%; kinase still bound, per cent of control (MAP3K11 (human)): 100%; kinase still bound, per cent of control [1]: 100%; kinase still bound, per cent of control (HIPK3 (human)): 100%; kinase still bound, per cent of control (STK35 (human)): 100%; kinase still bound, per cent of control (DYRK1A (human)): 100%; kinase still bound, per cent of control (HIPK2 (human)): 100%; kinase still bound, per cent of control (MAP2K6 (human)): 100%; kinase still bound, per cent of control (HIPK1 (human)): 100%; kinase still bound, per cent of control (NEK1 (human)): 100%; kinase still bound, per cent of control (LIMK2 (human)): 100%; kinase still bound, per cent of control (RPS6KA1 KD2 (human)): 100%
100 | 100 | 100 | 100 | 20 | 100 | 100 | 100 | 100 | 100 | 100 | 100 | 100 | 100 | 100 | 100 | 100 | 100 | 100 | 100 | CCN(CC)CCCCNc1ncc2cc(-c3cc(OC)cc(OC)c3)c(NC(=O)NC(C)(C)C)nc2n1 | kinase still bound, per cent of control (MAP3K11 (human)): 100%; kinase still bound, per cent of control (MAP2K6 (human)): 100%; kinase still bound, per cent of control (BRAF (human)): 100%; kinase still bound, per cent of control (NEK1 (human)): 100%; kinase still bound, per cent of control (LIMK2 (human)): 100%; kinase still bound, per cent of control (RPS6KA1 KD2 (human)): 100%
100 | 1.7 | 5.6 | 100 | 100 | 100 | 20 | 100 | 100 | 6.2 | 100 | 100 | 100 | 100 | 100 | 16 | 100 | 100 | 100 | 16 | C=CC(=O)Nc1ccc(CN(C(=O)Nc2c(Cl)c(OC)cc(OC)c2Cl)c2cc(Nc3ccc(N4CCN(C)CC4)cc3)ncn2)cc1 | kinase still bound, per cent of control (MAP3K11 (human)): 10%; kinase still bound, per cent of control [1]: 100%; kinase still bound, per cent of control (STK35 (human)): 100%; kinase still bound, per cent of control (MAP2K6 (human)): 100%; kinase still bound, per cent of control (BRAF (human)): 100%; kinase still bound, per cent of control (HIPK1 (human)): 100%; kinase still bound, per cent of control (NEK1 (human)): 100%; kinase still bound, per cent of control (LIMK2 (human)): 100%; kinase still bound, per cent of control (RPS6KA1 KD2 (human)): 100%

SMILES | kinase still bound, per cent of control (PIM1 (human)) [%] | kinase still bound, per cent of control (TNK2 (human)) [%] | kinase still bound, per cent of control (FYN (human)) [%] | kinase still bound, per cent of control (DAPK2 (human)) [%] | kinase still bound, per cent of control (PIK3CA (human)) [%] | kinase still bound, per cent of control (CDK14 (human)) [%] | kinase still bound, per cent of control [2] [%] | kinase still bound, per cent of control (PAK2 (human)) [%] | kinase still bound, per cent of control (ALK (human)) [%] | kinase still bound, per cent of control (MUSK (human)) [%] | kinase still bound, per cent of control (EPHA5 (human)) [%] | kinase still bound, per cent of control (RPS6KA6 KD1 (human)) [%] | kinase still bound, per cent of control (CDK3 (human)) [%] | kinase still bound, per cent of control (ACVR1B (human)) [%] | kinase still bound, per cent of control (EPHB3 (human)) [%] | kinase still bound, per cent of control (ITK (human)) [%] | kinase still bound, per cent of control (RPS6KA2 KD1 (human)) [%] | kinase still bound, per cent of control (STK16 (human)) [%] | kinase still bound, per cent of control (SRPK2 (human)) [%] | kinase still bound, per cent of control (ABL1 (human)) [%] | further results
Cc1n[nH]c2ccc(-c3cncc(OC[C@@H](N)Cc4c[nH]c5ccccc45)c3)cc12 | 0.4 | 100 | 100 | 1.3 | 100 | 9.8 | 100 | 4.6 | 100 | 100 | 100 | 100 | 22 | 100 | 100 | 100 | 29 | 100 | 22 | 100 | kinase still bound, per cent of control (MAP3K11 (human)): 100%; kinase still bound, per cent of control [1]: 100%; kinase still bound, per cent of control (STK35 (human)): 100%; kinase still bound, per cent of control (MAP2K6 (human)): 100%; kinase still bound, per cent of control (BRAF (human)): 100%; kinase still bound, per cent of control (HIPK1 (human)): 0.05%; kinase still bound, per cent of control (NEK1 (human)): 100%; kinase still bound, per cent of control (LIMK2 (human)): 100%; kinase still bound, per cent of control (RPS6KA1 KD2 (human)): 100%
